Experimental data from patent US9273057B2 (Bristol-Myers Squibb Company, priority 2012, dated 2016).

Biological target: CK2A1 (CK2α/β) (Homo sapiens, UniProt P68400)
Assay: CK2 kinase assay, CK2A1 (CK2α/β)
Assay type: biochemical
Details: Table A; read-out: CK2A1 (CK2α/β) (IC50)

CK2A1 (CK2α/β), sequence (P68400 whole entry, species assumed): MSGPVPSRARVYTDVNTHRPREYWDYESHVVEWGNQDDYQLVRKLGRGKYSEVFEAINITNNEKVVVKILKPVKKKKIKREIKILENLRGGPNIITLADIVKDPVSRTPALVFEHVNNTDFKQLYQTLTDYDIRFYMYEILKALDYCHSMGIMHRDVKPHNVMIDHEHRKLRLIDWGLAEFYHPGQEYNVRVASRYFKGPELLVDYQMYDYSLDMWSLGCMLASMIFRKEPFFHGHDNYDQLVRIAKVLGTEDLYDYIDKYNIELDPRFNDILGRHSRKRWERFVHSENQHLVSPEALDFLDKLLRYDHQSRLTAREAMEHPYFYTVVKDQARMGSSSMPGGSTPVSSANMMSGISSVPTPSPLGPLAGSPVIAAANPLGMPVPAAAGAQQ
CK2A1 (CK2α/β), sequence (P67870 whole entry partner, species assumed): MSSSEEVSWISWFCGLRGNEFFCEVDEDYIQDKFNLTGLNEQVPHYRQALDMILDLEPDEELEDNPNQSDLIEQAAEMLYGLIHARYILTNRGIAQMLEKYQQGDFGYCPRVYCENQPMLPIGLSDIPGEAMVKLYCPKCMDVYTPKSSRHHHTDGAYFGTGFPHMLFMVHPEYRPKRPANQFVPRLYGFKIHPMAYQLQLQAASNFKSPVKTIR

Row | Compound | IC50
1 | N#CCC(=O)N1CCC(c2cc(C#N)cc(Nc3nc(NC4CC4)c4ncc(C#N)n4n3)c2Cl)CC1 [Example 230, 2-((2-chloro-5-cyano-3-(1-(cyanoacetyl)-4-piperidinyl)phenyl)amino)-4-(cyclopropylamino)imidazo[2,1-f][1,2,4]triazine-7-carbonitrile] | 1.04 nM
2 | CC(C)(O)C(=O)N1CCC(c2cc(C#N)cc(Nc3nc(NC4CC4)c4ncc(C#N)n4n3)c2Cl)CC1 [Example 231, 2-((2-chloro-5-cyano-3-(1-(2-hydroxy-2-methylpropanoyl)-4-piperidinyl)phenyl)amino)-4-(cyclopropylamino)imidazo[2,1-f][1,2,4]triazine-7-carbonitrile] | 0.45 nM
3 | N#Cc1cc(Nc2nc(NC3CC3)c3ncc(C#N)n3n2)c(Cl)c(C2CCN(C(=O)C3(O)CC3)CC2)c1 [Example 232, 2-((2-chloro-5-cyano-3-(1-((1-hydroxycyclopropyl)carbonyl)-4-piperidinyl)phenyl)amino)-4-(cyclopropylamino)imidazo[2,1-f][1,2,4]triazine-7-carbonitrile] | 0.62 nM
4 | CC1(C(=O)N2CCC(c3cc(C#N)cc(Nc4nc(NC5CC5)c5ncc(C#N)n5n4)c3Cl)CC2)COC1 [Example 233, 2-((2-chloro-5-cyano-3-(1-((3-methyl-3-oxetanyl)carbonyl)-4-piperidinyl)phenyl)amino)-4-(cyclopropylamino)imidazo[2,1-f][1,2,4]triazine-7-carbonitrile] | 0.58 nM
5 | CC(C)(C)C(=O)N1CCC(c2cc(C#N)cc(Nc3nc(NC4CC4)c4ncc(C#N)n4n3)c2Cl)CC1 [Example 234, 2-((2-chloro-5-cyano-3-(1-(2,2-dimethylpropanoyl)-4-piperidinyl)phenyl)amino)-4-(cyclopropylamino)imidazo[2,1-f][1,2,4]triazine-7-carbonitrile] | 1.6 nM
6 | CC(C)(C)CC(=O)N1CCC(c2cc(C#N)cc(Nc3nc(NC4CC4)c4ncc(C#N)n4n3)c2Cl)CC1 [Example 235, 2-((2-chloro-5-cyano-3-(1-(3,3-dimethylbutanoyl)-4-piperidinyl)phenyl)amino)-4-(cyclopropylamino)imidazo[2,1-f][1,2,4]triazine-7-carbonitrile] | 3.86 nM
7 | N#Cc1cc(Nc2nc(NC3CC3)c3ncc(C#N)n3n2)c(Cl)c(C2CCN(C(=O)C3CC3)CC2)c1 [Example 236, 2-((2-chloro-5-cyano-3-(1-(cyclopropylcarbonyl)-4-piperidinyl)phenyl)amino)-4-(cyclopropylamino)imidazo[2,1-f][1,2,4]triazine-7-carbonitrile] | 0.78 nM
8 | N#Cc1cc(Nc2nc(NC3CC3)c3ncc(C#N)n3n2)c(Cl)c(C2CCN(C(=O)CC(F)(F)F)CC2)c1 [Example 237, 2-((2-chloro-5-cyano-3-(1-(3,3,3-trifIuoropropanoyl)-4-piperidinyl)phenyl)amino)-4-(cyclopropylamino)imidazo[2,1-f][1,2,4]triazine-7-carbonitrile] | 0.41 nM
9 | CC(C)(N)C(=O)N1CCC(c2cc(C#N)cc(Nc3nc(NC4CC4)c4ncc(C#N)n4n3)c2Cl)CC1 [Example 239, 2-((2-chloro-5-cyano-3-(1-(2-methylalanyl)-4-piperidinyl)phenyl)amino)-4-(cyclopropylamino)imidazo[2,1-f][1,2,4]triazine-7-carbonitrile] | 0.49 nM
10 | C[C@H](N)C(=O)N1CCC(c2cc(C#N)cc(Nc3nc(NC4CC4)c4ncc(C#N)n4n3)c2Cl)CC1 [Example 240, 2-((3-(1-L-alanyl-4-piperidinyl)-2-chloro-5-cyanophenyl)amino)-4-(cyclopropylamino)imidazo[2,1-f][1,2,4]triazine-7-carbonitrile] | 0.47 nM
11 | C[C@@H](N)C(=O)N1CCC(c2cc(C#N)cc(Nc3nc(NC4CC4)c4ncc(C#N)n4n3)c2Cl)CC1 [Example 241, 2-((3-(1-D-alanyl-4-piperidinyl)-2-chloro-5-cyanophenyl)amino)-4-(cyclopropylamino)imidazo[2,1-f][1,2,4]triazine-7-carbonitrile] | 0.59 nM
12 | N#Cc1cnc2c(NC3CC3)nc(Nc3cc(C(F)F)cc(N4CCN(C5COC5)CC4)c3Cl)nn12 [Example 242, 2-((2-Chloro-5-(difluoromethyl)-3-(4-(oxetan-3-yl)piperazin-1-yl)phenyl)amino)-4-(cyclopropylamino)imidazo[2,1-f][1,2,4]triazine-7-carbonitrile] | 1.3 nM
13 | COC(=O)N[C@@H]1CCN(c2cc(C(F)F)cc(Nc3nc(NC4CC4)c4ncc(C#N)n4n3)c2Cl)C[C@H]1O [Example 243, methyl (3R,4R)-1-(2-chloro-3-(7-cyano-4-(cyclopropylamino)imidazo[1,2-f][1,2,4]triazin-2-ylamino)-5-(difluoromethyl)phenyl)-3-hydroxypiperidin-4-ylcarbamate] | 2.08 nM
14 | CC1(N2CCOCC2)CCN(c2cc(C(F)F)cc(Nc3nc(NC4CC4)c4ncc(C#N)n4n3)c2Cl)CC1 [Example 244, 2-((2-chloro-5-(difluoromethyl)-3-(4-methyl-4-(4-morpholinyl)-1-piperidinyl)phenyl)amino)-4-(cyclopropylamino)imidazo[2,1-f][1,2,4]triazine-7-carbonitrile] | 0.97 nM
15 | CC1(N)CCN(c2cc(C(F)F)cc(Nc3nc(NC4CC4)c4ncc(C#N)n4n3)c2Cl)CC1 [Example 245, 2-((3-(4-amino-4-methyl-1-piperidinyl)-2-chloro-5-(difluoromethyl)phenyl)amino)-4-(cyclopropylamino)imidazo[2,1-f][1,2,4]triazine-7-carbonitrile] | 0.51 nM
16 | N#Cc1cnc2c(NC3CC3)nc(Nc3cc(C(F)F)cc(N4CCNCC4)c3Cl)nn12 [Example 246, 2-((2-chloro-5-(difluoromethyl)-3-(1-piperazinyl)phenyl)amino)-4-(cyclopropylamino)imidazo[2,1-f][1,2,4]triazine-7-carbonitrile] | 0.96 nM
17 | N#Cc1cnc2c(NC3CC3)nc(Nc3cc(C(F)F)cc(N4CCN(C5CCOCC5)CC4)c3Cl)nn12 [Example 247, 2-((2-chloro-5-(difluoromethyl)-3-(4-(tetrahydro-2H-pyran-4-yl)-1-piperazinyl)phenyl)amino)-4-(cyclopropylamino)imidazo[2,1-f][1,2,4]triazine-7-carbonitrile] | 1.74 nM
18 | N#Cc1cnc2c(NC3CC3)nc(Nc3cc(C(F)F)cc(N4CCN(CC(F)F)CC4)c3Cl)nn12 [Example 248, 2-((2-chloro-3-(4-(2,2-difluoroethyl)-1-piperazinyl)-5-(difluoromethyl)phenyl)amino)-4-(cyclopropylamino)imidazo[2,1-f][1,2,4]triazine-7-carbonitrile] | 3.27 nM
19 | N#Cc1cnc2c(NC3CC3)nc(Nc3cc(C(F)F)cc(NCC(O)CO)c3Cl)nn12 (stereo not drawn) [Example 254, 2-((2-chloro-5-(difluoromethyl)-3-((2,3-dihydroxypropyl)amino)phenyl)amino)-4-(cyclopropylamino)imidazo[2,1-f][1,2,4]triazine-7-carbonitrile] | 0.68 nM
20 | N#Cc1cnc2c(NC3CC3)nc(Nc3cc(C(F)F)cc(N4CCC(O)CC4)c3Cl)nn12 [Example 255, 2-((2-chloro-5-(difluoromethyl)-3-(4-hydroxy-1-piperidinyl)phenyl)amino)-4-(cyclopropylamino)imidazo[2,1-f][1,2,4]triazine-7-carbonitrile] | 0.53 nM
21 | N#Cc1cnc2c(NC3CC3)nc(Nc3cc(C(F)F)cc(N4CCC(NC5COC5)CC4)c3Cl)nn12 [Example 256, 2-((2-chloro-5-(difluoromethyl)-3-(4-(3-oxetanylamino)-1-piperidinyl)phenyl)amino)-4-(cyclopropylamino)imidazo[2,1-f][1,2,4]triazine-7-carbonitrile] | 0.75 nM
22 | CC1(O)CN(C2CCN(c3cc(C(F)F)cc(Nc4nc(NC5CC5)c5ncc(C#N)n5n4)c3Cl)CC2)C1 [Example 257, 2-((2-chloro-5-(difluoromethyl)-3-(4-(3-hydroxy-3-methyl-1-azetidinyl)-1-piperidinyl)phenyl)amino)-4-(cyclopropylamino)imidazo[2,1-f][1,2,4]triazine-7-carbonitrile] | 0.97 nM
23 | N#Cc1cnc2c(NC3CC3)nc(Nc3cc(C(F)F)cc(N4CCC(N5CC(F)C5)CC4)c3Cl)nn12 [Example 258, 2-((2-chloro-5-(difluoromethyl)-3-(4-(3-fluoro-1-azetidinyl)-1-piperidinyl)phenyl)amino)-4-(cyclopropylamino)imidazo[2,1-f][1,2,4]triazine-7-carbonitrile] | 1.93 nM
24 | CC(C)(O)C1CCN(C2CN(c3cc(C(F)F)cc(Nc4nc(NC5CC5)c5ncc(C#N)n5n4)c3Cl)C2)CC1 [Example 259, 2-((2-chloro-5-(difluoromethyl)-3-(3-(4-(1-hydroxy-1-methylethyl)-1-piperidinyl)-1-azetidinyl)phenyl)amino)-4-(cyclopropylamino)imidazo[2,1-f][1,2,4]triazine-7-carbonitrile] | 1.29 nM
25 | COC1CCN(C2CN(c3cc(C(F)F)cc(Nc4nc(NC5CC5)c5ncc(C#N)n5n4)c3Cl)C2)CC1 [Example 260, 2-((2-chloro-5-(difluoromethyl)-3-(3-(4-methoxy-1-piperidinyl)-1-azetidinyl)phenyl)amino)-4-(cyclopropylamino)imidazo[2,1-f][1,2,4]triazine-7-carbonitrile] | 2.12 nM
26 | CC1(CN2CCN(c3cc(C(F)F)cc(Nc4nc(NC5CC5)c5ncc(C#N)n5n4)c3Cl)CC2)COC1 [Example 264, 2-((2-chloro-5-(difluoromethyl)-3-(4-((3-methyl-3-oxetanyl)methyl)-1-piperazinyl)phenyl)amino)-4-(cyclopropylamino)imidazo[2,1-f][1,2,4]triazine-7-carbonitrile] | 2.97 nM
27 | CC(=O)N1CC(N2CCN(c3cc(C(F)F)cc(Nc4nc(NC5CC5)c5ncc(C#N)n5n4)c3Cl)CC2)C1 [Example 266, 2-((3-(4-(1-acetyl-3-azetidinyl)-1-piperazinyl)-2-chloro-5-(difluoromethyl)phenyl)amino)-4-(cyclopropylamino)imidazo[2,1-f][1,2,4]triazine-7-carbonitrile] | 2.97 nM
